What was measured:
[1] = molecular target: Casein kinase 1 epsilon (CSKN1E) (Homo sapiens, UniProt P49674); assay: Casein kinase assay, CK1 epsilon; type: biochemical; settings: recombinant CSKN1E 30 nM, ATP 10 μM
Method: The recombinant protein Casein kinase 1 delta (CSKN1D) was added to the substrate solution in a concentration of 5 nM and gently mixed. Dilution series in of compounds of the present invention in DMSO were added to the reaction mixture, followed after 20 min by addition of a mixture of ATP and ^33P-ATP (specific activity 0.01 μCi/μl final) to a final concentration of 10 μM. Reactions were carried out at 25° C. for 120 min, followed by spotting the reactions onto P81 ion exchange filter paper. Unbound phosphate was removed by washing of the filters in 0.75% phosphoric acid. […] IC50 values and curve fits were obtained using the program Prism® (Graph Pad Software).
The above assay was also used to determine the inhibitory capacity of the compounds of the present invention on Casein Kinase 1 epsilon, wherein instead of CSKN1D, recombinant protein Casein kinase 1 epsilon (CSKN1E) was added to the substrate solution in a concentration of 30 nM and gently mixed.

[2] = molecular target: Casein kinase 1 delta (CSKN1D) (Homo sapiens, UniProt P48730); assay: Casein kinase assay, CK1 delta; type: biochemical; settings: recombinant CSKN1D 5 nM, ATP 10 μM
Chain of Casein kinase 1 delta (CSKN1D) (P48730 whole entry): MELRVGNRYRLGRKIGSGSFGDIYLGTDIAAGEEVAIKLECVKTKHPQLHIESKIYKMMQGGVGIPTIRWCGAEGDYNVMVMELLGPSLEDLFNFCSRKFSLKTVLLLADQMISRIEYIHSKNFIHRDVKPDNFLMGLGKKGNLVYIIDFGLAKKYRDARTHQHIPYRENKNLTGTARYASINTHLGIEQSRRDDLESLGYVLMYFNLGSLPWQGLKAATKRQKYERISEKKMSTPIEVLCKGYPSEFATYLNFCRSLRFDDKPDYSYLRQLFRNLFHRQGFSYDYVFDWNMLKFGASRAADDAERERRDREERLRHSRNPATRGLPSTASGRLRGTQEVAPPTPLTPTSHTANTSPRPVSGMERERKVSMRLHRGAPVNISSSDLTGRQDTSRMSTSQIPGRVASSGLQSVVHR

Chain of Casein kinase 1 epsilon (CSKN1E) (P49674 whole entry): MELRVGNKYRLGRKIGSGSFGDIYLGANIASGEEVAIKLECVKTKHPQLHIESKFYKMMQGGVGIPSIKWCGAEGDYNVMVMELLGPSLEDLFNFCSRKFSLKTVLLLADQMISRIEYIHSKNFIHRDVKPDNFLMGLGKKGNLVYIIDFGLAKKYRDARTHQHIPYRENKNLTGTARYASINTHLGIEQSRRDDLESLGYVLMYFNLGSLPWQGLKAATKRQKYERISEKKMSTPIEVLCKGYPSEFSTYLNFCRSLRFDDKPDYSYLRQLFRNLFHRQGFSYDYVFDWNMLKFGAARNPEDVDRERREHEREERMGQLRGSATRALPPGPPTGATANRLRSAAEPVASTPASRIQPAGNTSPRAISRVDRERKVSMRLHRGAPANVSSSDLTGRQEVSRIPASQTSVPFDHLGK

Row | Compound | IC50 [1] [µM] | IC50 [2] [µM]
1 | O=C(Nc1nc2cc3c(cc2[nH]1)OC(F)(F)O3)c1csc(-c2ccc3c(c2)OCO3)n1 [Compound 39, 2-(benzo[d][1,3]dioxol-5-yl)-N-(2,2-difluoro-5H-[1,3]dioxolo[4′,5′:4,5]benzo[1,2-d]imidazol-6-yl)thiazole-4-carboxamide] | 0.2 to 1 | > 1
2 | O=C(Nc1nc2cc3c(cc2[nH]1)OC(F)(F)O3)c1coc(-c2ccc3c(c2)CCO3)n1 [Compound 40, N-(2,2-difluoro-5H-[1,3]dioxolo[4′,5′:4,5]benzo[1,2-d]imidazol-6-yl)-2-(2,3-dihydrobenzofuan-5-yl)oxazole-4-carboxamide] | > 1 | > 1
3 | O=C(Nc1nc2cc3c(cc2[nH]1)OC(F)(F)O3)c1cccc(Cl)c1 [Compound 41, 3-chloro-N-(2,2-difluoro-5H-[1,3]dioxolo[4′,5′:4,5]benzo[1,2-d]imidazol-6-yl)benzamide] | < 0.2 | < 0.2
4 | Cc1nnsc1C(=O)Nc1nc2cc3c(cc2[nH]1)OC(F)(F)O3 [Compound 42, N-(2,2-difluoro-5H-[1,3]dioxolo[4′,5′:4,5]benzo[1,2-d]imidazol-6-yl)-4-methyl-1,2,3-thiadiazole-5-carboxamide] | > 1 | > 1
5 | O=C(Nc1nc2cc3c(cc2[nH]1)OC(F)(F)O3)c1ccc(Cl)cc1Cl [Compound 43, 2,4-dichloro-N-(2,2-difluoro-5H-[1,3]dioxolo[4′,5′:4,5]benzo[1,2-d]imidazol-6-yl)benzamide] | 0.2 to 1 | 0.2 to 1
6 | O=C(Nc1nc2cc3c(cc2[nH]1)OC(F)(F)O3)c1cscn1 [Compound 44, N-(2,2-difluoro-5H-[1,3]dioxolo[4′,5′:4,5]benzo[1,2-d]imidazol-6-yl)thiazole-4-carboxamide] | 0.2 to 1 | 0.2 to 1
7 | O=C(Nc1nc2cc3c(cc2[nH]1)OC(F)(F)O3)c1cccs1 [Compound 45, N-(2,2-difluoro-5H-[1,3]dioxolo[4′,5′:4,5]benzo[1,2-d]imidazol-6-yl)thiophene-2-carboxamide] | 0.2 to 1 | 0.2 to 1
8 | COc1ccc(C(=O)Nc2nc3cc4c(cc3[nH]2)OC(F)(F)O4)cc1 [Compound 46, N-(2,2-difluoro-5H-[1,3]dioxolo[4′,5′:4,5]benzo[1,2-d]imidazol-6-yl)-4-methoxybenzamide] | 0.2 to 1 | 0.2 to 1
9 | O=C(Nc1nc2cc3c(cc2[nH]1)OC(F)(F)O3)c1ccccc1OC(F)(F)F [Compound 47, N-(2,2-difluoro-5H-[1,3]dioxolo[4′,5′:4,5]benzo[1,2-d]imidazol-6-yl)-2-(trifluoromethoxy)benzamide] | > 1 | 0.2 to 1
10 | O=C(Nc1nc2cc3c(cc2[nH]1)OC(F)(F)O3)c1cnc(NC(=O)c2ccccc2OC(F)(F)F)o1 [Compound 48, N-(2,2-difluoro-5H-[1,3]dioxolo[4′,5′:4,5]benzo[1,2-d]imidazol-6-yl)-2-(2-(trifluoromethoxy)benzamido)oxazole-5-carboxamide] | 0.2 to 1 | < 0.2
11 | O=C(Nc1nc2cc3c(cc2[nH]1)OC(F)(F)O3)c1ccccc1 [Compound 49, N-(2,2-difluoro-5H-[1,3]dioxolo[4′,5′:4,5]benzo[1,2-d]imidazol-6-yl)benzamide] | < 0.2 | < 0.2
12 | O=C(Nc1nc2cc3c(cc2[nH]1)OC(F)(F)O3)c1nc(NC(=O)c2ccc(Cl)cc2Cl)n[nH]1 [Compound 51, 3-(2,4-dichlorobenzamido)-N-(2,2-difluoro-5H-[1,3]dioxolo[4′,5′:4,5]benzo[1,2-d]imidazol-6-yl)-1H-1,2,4-triazole-5-carboxamide] | 0.2 to 1 | < 0.2
13 | O=C(Nc1nc2cc3c(cc2[nH]1)OC(F)(F)O3)c1nc(NC(=O)c2ccccc2OC(F)(F)F)n[nH]1 [Compound 52, N-(2,2-difluoro-5H-[1,3]dioxolo[4′,5′:4,5]benzo[1,2-d]imidazol-6-yl)-3-(2-(trifluoromethoxy)benzamido)-1H-1,2,4-triazole-5-carboxamide] | 0.2 to 1 | < 0.2
14 | O=C(Nc1nc2cc3c(cc2[nH]1)OC(F)(F)O3)c1c(F)cccc1F [Compound 54, N-(2,2-difluoro-5H-[1,3]dioxolo[4′,5′:4,5]benzo[1,2-d]imidazol-6-yl)-2,6-difluorobenzamide] | > 1 | 0.2 to 1
15 | O=C(Nc1nc2cc3c(cc2[nH]1)OC(F)(F)O3)c1csc(Br)n1 [Compound 55, 2-bromo-N-(2,2-difluoro-5H-[1,3]dioxolo[4′,5′:4,5]benzo[1,2-d]imidazol-6-yl)thiazole-4-carboxamide] | 0.2 to 1 | 0.2 to 1
16 | O=C(Nc1nc(C(=O)Nc2nc3cc4c(cc3[nH]2)OC(F)(F)O4)ns1)c1cccc(Cl)c1 [Compound 57] | < 0.2 | < 0.2
17 | O=C(Nc1n[nH]c(C(=O)Nc2nc3cc4c(cc3[nH]2)OC(F)(F)O4)n1)c1ccc([N+](=O)[O-])cc1 [Compound 61, N-(2,2-difluoro-5H-[1,3]dioxolo[4′,5′:4,5]benzo[1,2-d]imidazol-6-yl)-3-(4-nitrobenzamido)-1H-1,2,4-triazole-5-carboxamide] | > 1 | > 1
18 | Cc1ccccc1C(=O)Nc1nc2cc3c(cc2[nH]1)OC(F)(F)O3 [Compound 68, N-(2,2-difluoro-5H-[1,3]dioxolo[4′,5′:4,5]benzo[1,2-d]imidazol-6-yl)-2-methylbenzamide] | > 1 | 0.2 to 1
19 | COc1ccc(C(=O)Nc2nc(C(=O)Nc3nc4cc5c(cc4[nH]3)OC(F)(F)O5)cs2)cc1 [Compound 69, N-(2,2-difluoro-5H-[1,3]dioxolo[4′,5′:4,5]benzo[1,2-d]imidazol-6-yl)-2-(4-methoxybenzamido)thiazole-4-carboxamide] | 0.2 to 1 | < 0.2
20 | Nc1sccc1C(=O)Nc1nc2cc3c(cc2[nH]1)OC(F)(F)O3 [Compound 79, 2-amino-N-(2,2-difluoro-5H-[1,3]dioxolo[4′,5′:4,5]benzo[1,2-d]imidazol-6-yl)thiophene-3-carboxamide] | 0.2 to 1 | 0.2 to 1
21 | NS(=O)(=O)c1cc(C(=O)Nc2nc3cc4c(cc3[nH]2)OC(F)(F)O4)cs1 [Compound 83, N-(2,2-difluoro-5H-[1,3]dioxolo[4′,5′:4,5]benzo[1,2-d]imidazol-6-yl)-5-sulfamoylthiophene-3-carboxamide] | < 0.2 | < 0.2
22 | O=C(Nc1nc2cc3c(cc2[nH]1)OC(F)(F)O3)c1ncn[nH]1 [Compound 84, N-(2,2-difluoro-5H-[1,3]dioxolo[4′,5′:4,5]benzo[1,2-d]imidazol-6-yl)-1H-1,2,4-triazole-3-carboxamide] | > 1 | > 1
23 | CS(=O)(=O)c1ccc(C(=O)Nc2nc3cc4c(cc3[nH]2)OC(F)(F)O4)s1 [Compound 85, N-(2,2-difluoro-5H-[1,3]dioxolo[4′,5′:4,5]benzo[1,2-d]imidazol-6-yl)-5-(methylsulfonyl)thiophene-2-carboxamide] | 0.2 to 1 | 0.2 to 1
24 | O=C(Nc1nc2cc3c(cc2[nH]1)OC(F)(F)O3)c1cc(Cl)ccc1O [Compound 86, 5-chloro-N-(2,2-difluoro-5H-[1,3]dioxolo[4′,5′:4,5]benzo[1,2-d]imidazol-6-yl)-2-hydroxybenzamide] | > 1 | > 1

— patent US20170240556A1, “BIFLUORODIOXALANE-AMINO-BENZIMIDAZOLE KINASE INHIBITORS FOR THE TREATMENT OF CANCER, AUTOIMMUNEINFLAMMATION AND CNS DISORDERS” (4SC DISCOVERY GMBH, priority 2012, published 2017)
